Assay results as given in patent US4735958A, “Trans-6-[2-[2-(substituted-phenyl)-3- (or 4-) heteroaryl-5-substituted-1H-pyrrol-1-yl]-ethyl]tetrahydro-4-hydroxy-2H-p yran-2-one inhibitors of cholesterol biosynthesis” (Warner-Lambert Company, priority 1986, dated 1988).

system: sterol synthesis; assay: CSI: inhibition of cholesterol biosynthesis, incorporation of cholesterol-^14 C-acetate into nonsaponifiable lipid by rat liver homogenate; format: biochemical; conditions: 50% inhibition of sterol synthesis over a one-hour period; liver homogenate of rats fed chow diet containing 5% cholestyramine for four days
Description: The ability of compounds of the present invention to inhibit the biosynthesis of cholesterol was measured by the procedure described by R. E. Dugan et al., Archiv. Biochem. Biophys., (1972), 152, 21-27. In this method, designated CSI, the level of HMG-CoA enzyme activity in standard laboratory rats is increased by feeding the rats a chow diet containing 5% cholestyramine for four days, after which the rats are sacrificed.
The rat livers are homogenized, and the incorporation of cholesterol-^14 C-acetate into nonsaponifiable lipid by the rat liver homogenate is measured. The micromolar concentration of compound required for 50% inhibition of sterol synthesis over a one-hour period is measured, and expressed as an IC50 value.

Structure (SMILES) | IC50
CC(C)c1cc(-c2ccccn2)c(-c2ccc(F)cc2)n1CC[C@H]1C[C@H](O)CC(=O)O1 (racemic) [Compound 1, trans-(±)-6-[2-[2-(4-Fluorophenyl)-5-(1-methylethyl)-3-(2-pyridinyl)-1H-pyrrol-1-yl]ethyl]tetrahydro-4-hydroxy-2H-pyran-2-one] | 48 nM
CC(C)c1cc(-c2ccncc2)c(-c2ccc(F)cc2)n1CC[C@H]1C[C@H](O)CC(=O)O1 (racemic) [Compound 3, trans-(±)-6-[2-[2-(4-Fluorophenyl)-5-(1-methylethyl)-3-(4-pyridinyl)-1H-pyrrol-1-yl]ethyl]tetrahydro-4-hydroxy-2H-pyran-2-one] | 13 nM
CC(C)c1cc(-c2cccnc2)c(-c2ccc(F)cc2)n1CC[C@@H]1C[C@@H](O)CC(=O)O1 (relative stereo) [Compound 2, trans-(±)-6-[2-[2-[(4-Fluorophenyl)-5-(1-methylethyl)-3-(3-pyridinyl)-1H-pyrrol-1-yl]ethyl]tetrahydro-4-hydroxy-2H-pyran-2-one] | 55 nM
CC[C@H](C)C(=O)O[C@H]1CCC=C2C=C[C@H](C)[C@H](CC[C@@H]3C[C@@H](O)CC(=O)O3)[C@H]21 [Compactin, reference compound] | 18 nM
